Measured values: paper PMC9080521, “Molecular basis of rutin inhibition of protein disulfide isomerase (PDI) by combined in silico and experimental methods” (RSC Advances, 2018)
Converted amounts (≈) assume the structure as drawn.

Key:
[1] = molecular target: full-length human PDI (Homo sapiens, UniProt P07237); assay: Fluorescence-based direct binding assay; conditions: protein 18 μM, excitation 430 nm, emission 530 nm, n=3, Standard Error 0.18 μM; read-out: IC50 (binding affinity, fluorescence)
Procedure: (§1) 2. Binding affinity (IC50) of rutin to human or murine MBP-fused PDI proteins The MBP-fused PDI proteins (18 μМ) were incubated with a gradient of 10 rutin’s concentrations differed by 2- or 3-fold and 3 repetitions in 384-well black plate at room temperature for 30 min before measurements. The total assay volume was filled to 100 μL using the assay buffer (pH 7.4) contains 150 mM NaCl, 20 mM Tris, 1 mM EDTA, 1 mM β-ME and 5% glycerin. The fluorescence emission spectrum of the mixture were measured with the excitation at 430 nm and the emission at 530 nm at room temperature on a BioTek Synergy microplate reader with a sensitivity of 100. The data were analyzed by GraphPad Prism (Fig. S3).

[2] = molecular target: T1, human MBP-PDI-b′x (Homo sapiens, UniProt P07237); assay: Fluorescence-based direct binding assay; conditions: protein 18 μM, excitation 430 nm, emission 530 nm, n=3, Standard Error 0.16 μM; read-out: IC50 (binding affinity, fluorescence)
T1 construct: The human MBP-PDI-b′x (235–369); His-tag; made in house; host or cells: E. coli BL21 (DE3)
Procedure: as §1

[3] = molecular target: T2, human MBP-PDI-b′xa′ (Homo sapiens, UniProt P07237); assay: Fluorescence-based direct binding assay; conditions: protein 18 μM, excitation 430 nm, emission 530 nm, n=3, Standard Error 0.14 μM; read-out: IC50 (binding affinity, fluorescence)
T2 construct: MBP-PDI-b′xa′(235–479); His-tag; made in house; host or cells: E. coli BL21 (DE3)
Procedure: as §1

[4] = molecular target: T3, murine MBP-mPDI-b′x (Mus musculus, UniProt P09103); assay: Fluorescence-based direct binding assay; conditions: protein 18 μM, excitation 430 nm, emission 530 nm, n=3, Standard Error 0.15 μM; read-out: IC50 (binding affinity, fluorescence)
T3 construct: The murine MBP-mPDI-b′x (236–369); His-tag; made in house; host or cells: E. coli BL21 (DE3)
Procedure: as §1

[5] = molecular target: T4, murine MBP-mPDI-b′xa′ (Mus musculus, UniProt P09103); assay: Fluorescence-based direct binding assay; conditions: protein 18 μM, excitation 430 nm, emission 530 nm, n=3, Standard Error 0.15 μM; read-out: IC50 (binding affinity, fluorescence)
T4 construct: MBP-mPDI-b′xa′ (236–477); His-tag; made in house; host or cells: E. coli BL21 (DE3)
Procedure: as §1

[6] = molecular target: murine proteins (mPDI) (Mus musculus, UniProt P09103); assay: Fluorescence-based direct binding assay, murine proteins as a group; conditions: murine MBP-mPDI proteins, read-out: binding affinities of murine proteins (IC50)
Procedure: as §1

[7] = molecular target: T5, MBP-PDI-b′xa′ E359A (Homo sapiens, UniProt P07237, E359A); assay: Insulin reduction assay; type: biochemical; conditions: rutin 100 μM
T5 construct: MBP-PDI-b′xa′(235–479); His-tag; made in house; host or cells: E. coli BL21 (DE3)
Procedure: (§2) The insulin reduction assay was performed to assess the enzymatic activity of PDI and its MBP-fused recombinant proteins. PDI can reduce insulin in the presence of dithiothreitol (DTT) along with increase in turbidity of the reaction mixture. We thus monitored spectrophotometrically the aggregation of reduced insulin through the increase of turbidity. The reductase activity was measured in 100 μL in presence of 600 μM insulin, 1.5 μM PDI and recombinant PDI proteins, 1 mM DTT, and with protein buffer (pH 7.4), at room temperature over 100 min by absorption at 650 nm. For inhibition assay, 100 μM of rutin, kaempferitrin, tiliroside and 2′-O-galloylhyperin or control buffer was added to the reaction system.
(§3) We further used the insulin reduction assay to measure the reductase activities of these site-directed MBP-PDI-b′xa′ mutants. This assay has typically good reproducibility as shown by a control experiment with three repetitions (Fig. S7 ^†). We found the PDI mutants maintained reductase activities in the presence of dithiothreitol (DTT). The H354A mutation lowered the reductase activity of wt MBP-PDI-b′xa′ (Fig. 3G) while other mutants had similar reductase activities with that of wt MBP-PDI-b′xa′ (Fig. 3C, F and H–J). Addition of rutin inhibited the reductase activities of both wt MBP-PDI-b′xa′ and the mutants (Fig. 3C and F–J). […] We quantified the inhibition of rutin on these MBP-PDI-b′xa′ mutants by measuring the increase of turbidity (OD650 at 100 min) upon addition of rutin (Fig. 3K).

[8] = molecular target: T6, MBP-PDI-b′xa′ E359K (Homo sapiens, UniProt P07237, E359K); assay: Insulin reduction assay; type: biochemical; conditions: rutin 100 μM
T6 construct: MBP-PDI-b′xa′(235–479); His-tag; made in house; host or cells: E. coli BL21 (DE3)
Procedure: as §2, §3

[9] = molecular target: T7, MBP-PDI-b′xa′ H354A (Homo sapiens, UniProt P07237, H354A); assay: Insulin reduction assay; type: biochemical; conditions: rutin 100 μM
T7 construct: MBP-PDI-b′xa′(235–479); His-tag; made in house; host or cells: E. coli BL21 (DE3)
Procedure: as §2, §3

[10] = molecular target: T8, MBP-PDI-b′xa′ K328E (Homo sapiens, UniProt P07237, K328E); assay: Insulin reduction assay; type: biochemical; conditions: rutin 100 μM
T8 construct: MBP-PDI-b′xa′(235–479); His-tag; made in house; host or cells: E. coli BL21 (DE3)
Procedure: as §2, §3

[11] = molecular target: T9, MBP-PDI-b′xa′ L355R (Homo sapiens, UniProt P07237, L355R); assay: Insulin reduction assay; type: biochemical; conditions: rutin 100 μM
T9 construct: MBP-PDI-b′xa′(235–479); His-tag; made in house; host or cells: E. coli BL21 (DE3)
Procedure: as §2, §3

[12] = molecular target: T10, wt MBP-PDI-b′xa′ (Homo sapiens, UniProt P07237); assay: Insulin reduction assay; type: biochemical
T10 construct: MBP-PDI-b′xa′(235–479); His-tag; made in house; host or cells: E. coli BL21 (DE3)
Procedure: as §2, §3

[13] = Water solubility; type: physicochemical
[14] = system: PDI; parameters: method as in PMID 22565308, PMID 26240139; conditions: dose-dependent; cited from earlier work
[15] = system: ERp57; parameters: method as in PMID 22565308; conditions: cited from earlier work
[16] = system: thioredoxin; parameters: method as in PMID 22565308; conditions: cited from earlier work

T9 sequence (P07237 235-479 L355R): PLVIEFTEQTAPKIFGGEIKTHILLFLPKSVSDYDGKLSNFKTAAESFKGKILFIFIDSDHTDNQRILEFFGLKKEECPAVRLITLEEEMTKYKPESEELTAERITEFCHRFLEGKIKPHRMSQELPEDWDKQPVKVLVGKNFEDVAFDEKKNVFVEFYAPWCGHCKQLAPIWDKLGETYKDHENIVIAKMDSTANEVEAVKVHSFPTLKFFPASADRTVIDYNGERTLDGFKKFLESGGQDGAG
T6 sequence (P07237 235-479 E359K): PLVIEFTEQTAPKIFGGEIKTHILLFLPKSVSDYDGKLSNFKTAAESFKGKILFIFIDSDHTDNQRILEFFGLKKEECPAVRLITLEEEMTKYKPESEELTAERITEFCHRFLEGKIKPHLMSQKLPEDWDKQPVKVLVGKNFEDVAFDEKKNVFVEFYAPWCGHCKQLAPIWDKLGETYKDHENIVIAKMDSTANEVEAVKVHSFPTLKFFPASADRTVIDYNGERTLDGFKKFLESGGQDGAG
T5 sequence (P07237 235-479 E359A): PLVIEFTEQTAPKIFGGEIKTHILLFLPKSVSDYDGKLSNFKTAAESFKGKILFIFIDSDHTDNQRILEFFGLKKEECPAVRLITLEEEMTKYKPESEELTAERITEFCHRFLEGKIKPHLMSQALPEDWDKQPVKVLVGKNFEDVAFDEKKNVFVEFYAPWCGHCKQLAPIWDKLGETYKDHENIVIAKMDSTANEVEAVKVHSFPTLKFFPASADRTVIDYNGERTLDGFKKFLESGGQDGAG
T8 sequence (P07237 235-479 K328E): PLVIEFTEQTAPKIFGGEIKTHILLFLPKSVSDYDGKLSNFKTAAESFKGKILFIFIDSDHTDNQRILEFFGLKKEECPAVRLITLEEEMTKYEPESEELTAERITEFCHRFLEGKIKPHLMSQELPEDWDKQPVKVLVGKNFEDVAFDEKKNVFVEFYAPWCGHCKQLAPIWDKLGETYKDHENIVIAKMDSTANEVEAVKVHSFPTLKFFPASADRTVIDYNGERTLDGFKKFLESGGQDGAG
T7 sequence (P07237 235-479 H354A): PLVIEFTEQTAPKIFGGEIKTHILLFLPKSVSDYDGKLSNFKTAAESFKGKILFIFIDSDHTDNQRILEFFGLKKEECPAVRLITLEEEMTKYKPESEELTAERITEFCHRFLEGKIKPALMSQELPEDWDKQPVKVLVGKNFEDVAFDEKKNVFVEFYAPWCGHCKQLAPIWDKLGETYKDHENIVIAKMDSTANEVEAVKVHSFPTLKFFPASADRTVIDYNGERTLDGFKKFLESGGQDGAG
T10 sequence (P07237 235-479): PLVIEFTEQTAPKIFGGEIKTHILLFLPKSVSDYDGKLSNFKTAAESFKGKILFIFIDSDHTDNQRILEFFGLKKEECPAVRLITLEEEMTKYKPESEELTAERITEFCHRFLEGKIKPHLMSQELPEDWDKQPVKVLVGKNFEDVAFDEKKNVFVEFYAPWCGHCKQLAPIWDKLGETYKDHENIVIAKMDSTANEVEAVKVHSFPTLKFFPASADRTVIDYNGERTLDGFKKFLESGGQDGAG
Sequence of full-length human PDI (P07237 18-508): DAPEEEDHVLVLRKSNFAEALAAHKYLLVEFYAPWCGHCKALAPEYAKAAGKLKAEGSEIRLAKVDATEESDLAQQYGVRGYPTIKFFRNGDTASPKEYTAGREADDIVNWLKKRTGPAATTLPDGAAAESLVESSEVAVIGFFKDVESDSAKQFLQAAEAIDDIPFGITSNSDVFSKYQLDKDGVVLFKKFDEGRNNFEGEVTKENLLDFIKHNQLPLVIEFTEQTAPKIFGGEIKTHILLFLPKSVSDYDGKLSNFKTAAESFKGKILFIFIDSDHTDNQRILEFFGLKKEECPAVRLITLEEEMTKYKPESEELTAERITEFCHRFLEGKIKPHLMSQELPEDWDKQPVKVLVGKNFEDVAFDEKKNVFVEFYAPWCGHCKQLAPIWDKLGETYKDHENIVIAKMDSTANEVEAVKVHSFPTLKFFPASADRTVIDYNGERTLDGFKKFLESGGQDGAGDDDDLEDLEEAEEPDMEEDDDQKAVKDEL
T1 sequence (P07237 235-369): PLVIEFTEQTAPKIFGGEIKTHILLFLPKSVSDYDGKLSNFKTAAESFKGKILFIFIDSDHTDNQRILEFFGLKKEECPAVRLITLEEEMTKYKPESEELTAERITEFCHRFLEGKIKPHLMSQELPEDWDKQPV
T3 sequence (P09103 236-369): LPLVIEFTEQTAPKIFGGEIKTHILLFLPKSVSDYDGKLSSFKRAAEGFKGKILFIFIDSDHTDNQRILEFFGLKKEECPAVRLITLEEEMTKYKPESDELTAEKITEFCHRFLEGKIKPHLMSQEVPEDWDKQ
Sequence of murine proteins (mPDI) (P09103 236-369): as above
T4 sequence (P09103 236-477): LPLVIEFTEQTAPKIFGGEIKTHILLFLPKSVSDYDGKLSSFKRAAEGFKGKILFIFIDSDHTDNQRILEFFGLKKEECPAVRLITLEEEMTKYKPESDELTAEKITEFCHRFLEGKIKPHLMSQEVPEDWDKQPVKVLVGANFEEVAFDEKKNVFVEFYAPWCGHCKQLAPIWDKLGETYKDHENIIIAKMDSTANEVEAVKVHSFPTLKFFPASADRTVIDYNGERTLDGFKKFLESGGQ
T2 sequence (P07237 235-479): as the sequence (P07237 235-479) above

C[C@@H]1O[C@@H](OC[C@H]2O[C@@H](Oc3c(-c4ccc(O)c(O)c4)oc4cc(O)cc(O)c4c3=O)[C@H](O)[C@@H](O)[C@@H]2O)[C@H](O)[C@H](O)[C@H]1O [rutin]
IC50 [1]: 31.1 µM | IC50 [2]: 18.7 µM | IC50 [3]: 28.8 µM | IC50 [4]: 15.7 µM | IC50 [5]: 26.3 µM | IC50 [6]: ~30 µM | inhibition at 100 µM ([7]; increase of turbidity (OD650) at 100 min, E359A, read-out: Inhibitory efficiency (%)): 86% | turbidity (OD650), raw kinetic read at 1:40:32 ([7]; last read (100 min), E359A alone 0.711): 0.416 | inhibition at 100 µM ([8]; increase of turbidity (OD650) at 100 min, E359K, read-out: Inhibitory efficiency (%)): 88.8% | turbidity (OD650), raw kinetic read at 1:40:32 ([8]; last read (100 min), E359K alone 0.698): 0.4 | inhibition at 100 µM ([9]; increase of turbidity (OD650) at 100 min, H354A, read-out: Inhibitory efficiency (%)): 82.9% | turbidity (OD650), raw kinetic read at 1:40:32 ([9]; last read (100 min), H354A alone 0.585): 0.35 | inhibition at 100 µM ([10]; increase of turbidity (OD650) at 100 min, K328E, read-out: Inhibitory efficiency (%)): 99% | turbidity (OD650), raw kinetic read at 1:40:32 ([10]; last read (100 min), K328E alone 0.777): 0.4 | decrease of inhibitory efficiency compared with wt MBP-PDI-b′xa′ ([11]; L355R): modest decrease | inhibition at 100 µM ([11]; increase of turbidity (OD650) at 100 min, L355R, read-out: Inhibitory efficiency (%)): 98.4% | turbidity (OD650), raw kinetic read at 1:40:32 ([11]; last read (100 min), L355R alone 0.819): 0.424 | turbidity (OD650), raw kinetic read at 1:40:32 ([12]; compound 100 μM, 1.5 μM protein, last read (100 min), WT alone 0.829): 0.585 | inhibition at 100 µM ([12]; rutin 100 μM, increase of turbidity (OD650) at 100 min, wt, read-out: Inhibitory efficiency (%)): 100% | solubility [13]: ~200 µM (≈ 122 µg/mL) | IC50 of inhibition of PDI activities [14]: micromolar range | inhibition of ERp57 [15]: did not inhibit | inhibition of thioredoxin [16]: did not inhibit
